# Experimental data taken from US6599499B1, “Uses of diterpenoid triepoxides as an anti-proliferative agent” (priority 1999, dated 2003).
# How the values were obtained:
# Bax = Bax protein level by immunoblot in MCF-7 cells; format: cell-based, human; details: triptolide-treated MCF-7 cells
# Description: Immunoblotting. At 8 hours after triptolide and/or doxorubicin treatment cells were harvested at the times indicated and lysed using HNET buffer (50 mM HEPES pH 7.5, 100 mM NaCl, 1 mM EGTA, and 1% Triton X-100) supplemented with 1 mM DTT, 1 mM PMSF and protease inhibitors cocktail (Boehringer Mannheim, Germany). 35 μg of protein was loaded on 10% SDS-PAGE followed by transferring to PVDF membrane. Immunoblotting was performed as previously described using a p53 mouse monoclonal antibody from Oncogene Research Products (Lee et al. (1999) J Biol Chem 274:13451-5).
# Immunoblot analysis using other antibodies was performed as described above. The band intensity was measured by NIH Image 1.62.
# p53 null (−/−) MEFs = test: Cell viability of p53-/- mouse embryonic fibroblasts; details: Fibroblast, read-out: reduction of cell viability
# Description: Cell culture and luciferase assay. A549 (non-small cell lung cancer), HT-1080 (fibrosarcoma), and MCF-7 (breast cancer) cells were cultured in the appropriate media with 10% FCS supplemented with L-glutamine, penicillin, and streptomycin. p53 wild-type (+/+) and null (−/−) Mouse Embryonic Fibroblasts (MEFs) transfected with the E1A/Ras were grown in DMEM containing 15% FCS supplemented with L-glutamine, penicillin, and streptomycin. Transfections were done on MCF-7 cells using the lipofectamine Plus reagent. At 24 hours after transfection, MCF-7 cells were left untreated or treated with triptolide (20 ng/ml) or doxorubicin (100 nM) for 4, 8, and 16 hours and cells were collected for luciferase assay. Luciferase activity was measured in samples with equal protein concentration with a Luminometer (Analytical Luminescence Laboratory, San Diego, Calif.).
# Cell viability assay. Cell viability was measured by an 3-(4,5-dimethylthiazol-2-yl)-2,5-diphenyltetrazolium bromide (MTT) assay as described above. Untreated or cells treated with triptolide and/or doxorubicin were harvested at the indicated times followed by the addition of MTT to the cells in a 96-well plate. Cells were solubilized with […] acidified with 0.1N HCl. The 96-plate was read at a wavelength of 590 nm on an iEMS Labsystems plate reader.
# [1] = tested on: p53 consensus binding site; test: Electromobility shift assay of p53 DNA binding; format: cell-based, human
# Description: Electromobility Shift Assay (EMSA. HT1080 cells were treated as shown. The EMSA was performed as described previously using an end-labeled 32P-p53 consensus binding site (Santa Cruz Biotechnology, Santa Cruz, Calif.) (Lee et al., supra.)
# Dx5 cells [2] = test: Internucleosomal DNA laddering in Dx5 cells; format: cell-based, human
# Description: Cell death reagents and assays. Cell viability was measured by an MTT assay as recently described (Lee et al. (1999) J. Biol. Chem. 274:13451-13455. z-VAD-fluoromethylketone (z-VAD.fmk) was obtained from Alexis Biochemicals, San Diego, Calif. The effect of z-VAD.fmk on cell viability was analyzed by annexin and propidium iodide staining followed by FACS analysis according to the manufacturer's protocol (Clontech Laboratories, Palo Alto, Calif.). The analysis of apoptosis in histologic sections was done by terminal deoxynucleotidyl transferase (TdT)-mediated d-UTP nick end labeling (TUNEL) of slides from paraffin sections of day 3 tumors harvested from the mice 24 h after the second of two daily treatments with PG490-88 or saline. TUNEL staining was done according to the manufacturer's protocol (Boehringer Mannheim, Indianapolis, Ind.) and then the histology slides were counterstained with methyl green. DNA was isolated from cells for analysis of internucleosomal DNA laddering followed by agarose gel electrophoresis and ethidium bromide staining.
# In FIG. 1A, ZR-75 (breast cancer), H23 (non-small cell lung cancer) and Dx5 (MDR uterine sarcoma) cell lines were treated with PG490 at dosages shown and harvested 48 h later for analysis of cell viability by an MTT assay. […]
# [3] = tested on: HT-29 human colon cancer cell line tumors; test: Nude mouse xenograft, established HT-29 colon cancer tumors; format: in vivo, nude mice
# Description: HT-29 tumor cells grown in tissue culture were harvested and implanted intradermally on the backs of nude mice. Tumor size was monitored by measuring the dimensions of each tumor and calculating tumor volume with a formula. […] PG490-88 treatment at 0.25 mg/kg was administered daily i.p. 5 days per week for 2 weeks. Navelbine at 10 mg/kg was given i.v. on days 0 and 7. Mice in the combination treatment group received PG490-88 i.p. and Navelbine i.v. at the appropriate times. The treatments were given to mice at 100 μl per 10 g of mouse body weight. Tumor dimensions were measured periodically for calculation of tumor volumes. […] The data are presented as mean percent change in tumor volume from day 0 for each treatment group. Toxicity of the treatment was monitored by weighing the mice daily 5 days per week. In FIG. 8, a comparison is provided for tumor volumes on Days 0 and 14. Tumor dimensions were measured periodically for calculation of tumor volumes, and the final determinations were made on day 14.
# HT1080 tumor cells = test: Nude mouse xenograft, established HT1080 tumors; format: in vivo, nude mice; details: PG490-88 0.75 mg/kg IP days 0-5 and 7-11, CPT-11 11 mg/kg IV days 1, 5, 9
# Description: Mice. […] Nude mouse xenograft model. HT1080 tumor cells were grown in tissue culture flasks and harvested using EDTA and trypsin. Cells were centrifuged and the concentration of viable cells was appropriately adjusted. […] Tumor size was monitored after tumor cell implantation by measuring the width, length and thickness of the tumors and using a formula to calculate the volume. […] Control mice were left untreated. […] Combination therapy mice received both PG490-88 and CPT-11 treatments.
# [4] = room temperature
# Description: Stock solutions of PG490-88 (1 mg/ml) were prepared by dissolution in 0.9% NaCl and sterilized by microfiltration using 0.2 μm pore size filters (Supor Acrodisc 25, Gelman Sciences, Ann Arbor, Mich.). The PG490-88 stock solutions were diluted in 0.9% NaCl for IP administration.
# Dx5 cells [5] = details: cited from earlier work
# NF-κB = NF-κB transcriptional activity in HT1080 cells; format: cell-based, human
compound,measurement,setting,value
"CC(C)[C@]12O[C@H]1[C@@H]1O[C@]13[C@]1(O[C@H]1C[C@H]1C4=C(CC[C@@]13C)C(=O)OC4)[C@@H]2O [PG490, triptolide]",change in Bax,Bax,no significant change
same,cytotoxicity at 0.005 µg/mL,p53 null (−/−) MEFs,15%
same,cytotoxicity at 0.01 µg/mL,p53 null (−/−) MEFs,50%
same,DNA binding of p53,[1]; triptolide alone,slightly enhanced
same,effect on doxorubicin-mediated induction of DNA binding of p53,[1]; triptolide in combination with doxorubicin,did not block
same,"DNA laddering, time it began",Dx5 cells [2],6 h
same,"DNA laddering, time of maximum",Dx5 cells [2],≤ 16 h
"CC(C)[C@]12O[C@H]1[C@@H]1O[C@]13[C@]1(O[C@H]1C[C@H]1C4=C(CC[C@@]13C)C(=O)OC4)[C@@H]2OC(=O)CCC(=O)[O-].[Na+] [PG490-88, 14-succinyl triptolide sodium salt]",increase in tumor volume from day 0 by day 14,"[3]; PG490-88 0.25 mg/kg i.p. 5 days per week for 2 weeks, Navelbine 10 mg/kg i.v. days 0 and 7",238%
same,Day 0 Tumor Volume (mm^3) Mean,"[3]; baseline at grouping, before treatment",109 mm^3
same,TV Mean Day 4,HT1080 tumor cells,167
same,TV Mean Day 7,HT1080 tumor cells,208
same,TV Mean Day 10,HT1080 tumor cells,247
same,TV Mean Day 14,HT1080 tumor cells,532
same,TV Mean Day 0,HT1080 tumor cells; baseline,107
same,half-life in mouse serum,[4],< 5 min
"COc1cccc2c1C(=O)c1c(O)c3c(c(O)c1C2=O)C[C@@](O)(C(=O)CO)C[C@@H]3O[C@H]1C[C@H](N)[C@H](O)[C@H](C)O1 [doxorubicin, reference compound]",fold more resistant than the MES-SA parent cell line,Dx5 cells [5],100 fold
same,NF-κB transcriptional activity,NF-κB,did not induce
